Reference: the supplement of paper PMC10883282

What was measured:
Assay in all cases: relative viability vs DMSO control (72 h) (fraction); higher = more viable cells
[1] = tested on: A204
In short: (§1)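 Sarcoma cell lines were grown in 384-well plates seeded toward 80–90% confluence and exposed 24 h later to serially diluted compound. After 72 h at 37 °C and 5% CO2, with 0.1% DMSO vehicle and a 5 µM positive control on the plates, ATPLite was read. Relative viability, given as percent growth averaged over up to triplicate wells, was rescaled so that 1 is full and 0 is none.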

[2] = tested on: G401
In short: as §1

[3] = tested on: HS729
In short: as §1

[4] = tested on: KHOS-240S
In short: as §1

[5] = tested on: MES-SA
In short: as §1

[6] = tested on: RD
In short: as §1

[7] = tested on: SK-ES-1
In short: as §1

[8] = tested on: SK-LMS-1
In short: as §1

[9] = tested on: SW1353
In short: as §1

[10] = tested on: SW872
In short: as §1

[11] = tested on: SW982
In short: as §1

[12] = tested on: VA-ES-BJ
In short: as §1

CC[C@@H]1CN(C(=O)NCC(F)(F)F)C[C@@H]1c1cnc2cnc3[nH]ccc3n12 [Upadacitinib]
Details | relative viability
[1], 0.00017 µM | 1.05
[1], 0.00051 µM | 1.1
[1], 0.00152 µM | 1.1
[1], 0.00457 µM | 1.07
[1], 0.01372 µM | 1.05
[1], 0.04115 µM | 1.05
[1], 0.1235 µM | 1.07
[1], 0.3704 µM | 1.03
[1], 1.111 µM | 1.03
[1], 3.333 µM | 0.945
[1], 10 µM | 0.832
[2], 0.00017 µM | 1.03
[2], 0.00051 µM | 1.04
[2], 0.00152 µM | 1
[2], 0.00457 µM | 1.04
[2], 0.01372 µM | 1.02
[2], 0.04115 µM | 0.987
[2], 0.1235 µM | 1.01
[2], 0.3704 µM | 0.977
[2], 1.111 µM | 0.953
[2], 3.333 µM | 0.904
[2], 10 µM | 0.842
[3], 0.00017 µM | 1.02
[3], 0.00051 µM | 0.954
[3], 0.00152 µM | 0.973
[3], 0.00457 µM | 0.97
[3], 0.01372 µM | 0.931
[3], 0.04115 µM | 0.946
[3], 0.1235 µM | 0.895
[3], 0.3704 µM | 0.837
[3], 1.111 µM | 0.834
[3], 3.333 µM | 0.805
[3], 10 µM | 0.761
[4], 0.00017 µM | 1.09
[4], 0.00051 µM | 1.06
[4], 0.00152 µM | 1.09
[4], 0.00457 µM | 1.1
[4], 0.01372 µM | 1.08
[4], 0.04115 µM | 1.09
[4], 0.1235 µM | 1.06
[4], 0.3704 µM | 1.04
[4], 1.111 µM | 0.982
[4], 3.333 µM | 0.919
[4], 10 µM | 0.708
[5], 0.00017 µM | 0.941
[5], 0.00051 µM | 0.949
[5], 0.00152 µM | 0.947
[5], 0.00457 µM | 0.939
[5], 0.01372 µM | 0.932
[5], 0.04115 µM | 0.92
[5], 0.1235 µM | 0.923
[5], 0.3704 µM | 0.936
[5], 1.111 µM | 0.885
[5], 3.333 µM | 0.873
[5], 10 µM | 0.812
[6], 0.00017 µM | 1.07
[6], 0.00051 µM | 1.08
[6], 0.00152 µM | 1.13
[6], 0.00457 µM | 1.13
[6], 0.01372 µM | 1.14
[6], 0.04115 µM | 1.14
[6], 0.1235 µM | 1.08
[6], 0.3704 µM | 1.14
[6], 1.111 µM | 1.14
[6], 3.333 µM | 1.07
[6], 10 µM | 1
[7], 0.00017 µM | 1.02
[7], 0.00051 µM | 1.01
[7], 0.00152 µM | 1.05
[7], 0.00457 µM | 1.02
[7], 0.01372 µM | 1.02
[7], 0.04115 µM | 1
[7], 0.1235 µM | 1.058
[7], 0.3704 µM | 1.01
[7], 1.111 µM | 0.982
[7], 3.333 µM | 0.986
[7], 10 µM | 0.907
[8], 0.00017 µM | 1.06
[8], 0.00051 µM | 1.05
[8], 0.00152 µM | 1.07
[8], 0.00457 µM | 1.07
[8], 0.01372 µM | 1.09
[8], 0.04115 µM | 1.08
[8], 0.1235 µM | 1.056
[8], 0.3704 µM | 1.05
[8], 1.111 µM | 1.02
[8], 3.333 µM | 0.979
[8], 10 µM | 0.772
[9], 0.00017 µM | 1.04
[9], 0.00051 µM | 1.04
[9], 0.00152 µM | 1.02
[9], 0.00457 µM | 1.04
[9], 0.01372 µM | 0.997
[9], 0.04115 µM | 1.01
[9], 0.1235 µM | 1.001
[9], 0.3704 µM | 0.942
[9], 1.111 µM | 0.937
[9], 3.333 µM | 0.84
[9], 10 µM | 0.686
[10], 0.00017 µM | 1.07
[10], 0.00051 µM | 1.07
[10], 0.00152 µM | 1.07
[10], 0.00457 µM | 1.03
[10], 0.01372 µM | 1.03
[10], 0.04115 µM | 1.01
[10], 0.1235 µM | 1.01
[10], 0.3704 µM | 0.963
[10], 1.111 µM | 1
[10], 3.333 µM | 0.97
[10], 10 µM | 0.85
[11], 0.00017 µM | 1.01
[11], 0.00051 µM | 1.022
[11], 0.00152 µM | 1.05
[11], 0.00457 µM | 1.05
[11], 0.01372 µM | 1.052
[11], 0.04115 µM | 1.04
[11], 0.1235 µM | 1.06
[11], 0.3704 µM | 1.043
[11], 1.111 µM | 1
[11], 3.333 µM | 0.969
[11], 10 µM | 0.779
[12], 0.00017 µM | 1.1
[12], 0.00051 µM | 1.05
[12], 0.00152 µM | 1.07
[12], 0.00457 µM | 1.04
[12], 0.01372 µM | 1.05
[12], 0.04115 µM | 1.06
[12], 0.1235 µM | 1.04
[12], 0.3704 µM | 1.037
[12], 1.111 µM | 1
[12], 3.333 µM | 1.03
[12], 10 µM | 0.995
